Reference: patent publication US9594047B2, “Potentiometric sensors and method for measuring intermolecular interactions” (Universiteit Antwerpen, priority 2013, dated 2017)

Experiments:
[1] = test system: DA-specific aptamer (58 mer); experiment: Potentiometric FIA sensorgram, gelatin B sensor with covalently linked DA-specific aptamer; type: binding; conditions: for Rmax response in mV: 10^−5M injection, coating Gelatin B + DA-specific aptamer; for change in sensitivity (Rmax) when aptamer is coupled to gelatin B: with versus without aptamer
From the text: (§1) [formula] Starting from the “association” part of the sensorgram, one can now plot dR/dt versus R. For a pseudo-first-order kinetics, this will yield a straight line with slope equal to slope=−(koncanalyte+koff) (12) Plotting this slope versus canalyte then yields a graph from which kon and koff can be calculated.
(§2) From kon and koff, Kassoc=kon/koff is obtained, from which Kdiss (=1/Kassoc) and the Gibbs free energy of interaction can be calculated (ΔG^0=−RT ln Kass). Kdiss is most frequently used term to express intermolecular interactions. This type of analysis was done for different electrode/analyte combinations. Examples were chosen so as to include examples where the immobilized component (in the coating layer of the sensor) includes large biomolecules (DNA).
(§3) The flow injection analysis (FIA) recordings were performed using an LC-10ADvp pump (Shimadzu Liquid Chromatography) and a Rheodyne 7125 six-port external sample injector (VICI, Houston, Tex.). A 1.00 mL sample loop was used to generate square concentration pulses for sensorgram recording in FIA conditions. […] The flow rate was 1.00 mL min^−1. Poiseuille peak broadening effects were kept to a minimum using short injector-detector connections (150 mm). To avoid such effects at the end of the square concentration pulse, the injector was switched from inject to load after 40 s (well before the sample loop volume was totally emptied).
The well-known ethyl-dimethyl-aminopropylcarbodiimide and n-hydroxy-succinimide (EDC-NHS) coupling procedure was used (with minor modifications) to bind the aminated aptamer covalently to the hydrogel, which contains carboxyl groups. After adding 20 μL of the coupling agents (15.32 mg of EDC and 2.32 mg of NHS dissolved in 100 μl of 10.0 mM MES buffer at pH 7.0) to the coated hydrogel for 2 h, 2×4 μL of the aptamer (10^−4M) was applied for 1 h. After evaporation for 2 h, at 4° C. the electrodes were kept in 10.0 mM MES running buffer, pH 7.0.
All chemicals were of analytical reagent grade. The FIA eluents were prepared daily by the dilution of a concentrated phosphoric acid solution or by dissolving HEPES, both obtained from Acros Organics (Filter Service NV, Eupen, Belgium). High-molecular-mass PVC was obtained from Janssen Chimica (Beerse, Belgium). The other membrane components were of the highest quality grade available from Fluka (Sigma-Aldrich, Bornem, Belgium). These include plasticizer TCPB, DOS, and the solvent tetrahydrofuran (THF). Type gelatin A (IEP (isoelectric point)=8.8, bloom strength 202), isolated from porcine skin by acid treatment, was obtained from Tessenderlo Chemie (Belgium). Promazine, lidocaine and tartaric acid were obtained from Sigma-Aldrich.
After checking the coupling of the aptamer to the biopolymer as described above, the electrodes were placed in a FIA potentiometric setup.
(§4) A R=10^mV/S−1 conversion was then plotted (see equation 4). […] Four electrodes were tested, each 3 injections.

[2] = cited from earlier work
[3] = Potentiometric FIA sensorgram, linearization method, rubber phase (PVC) coated sensor; type: binding; conditions: for koff: from plot of slope versus canalyte (on phase kinetics); for kon: from plot of slope versus canalyte, eluent 5.0 mM H3PO4 pH 2.4
From the text: The model is based on the assumption that the rate determining phenomenon is the adsorption of analyte A (second molecular species) to the surface receptor sites Rsurface: A+Rsurface⇄ARsurface (5) Receptor sites are occupied by the analyte are designated as Roccupied. The rate of adsorption can be expressed as νon: […]
Differential equation 6 can be solved to yield equations 8 and 10. In these equations, Roccupied is replaced by R, the concentration-related response (10^mV/S−1), as both are linearly related (see above). Rmax is the value of R which is obtained at the plateau of the sensorgram: R(t)=Rmax(1−e^−k^obsd^t) (8) where kobsd=[…] (9) Equation 7 yields the well-known first-order exponential desorption formula: R(t)=Rmaxe^−k^off^t (10)
as §1, §2, §3
The eluent was 5.0 mM H3PO4 (pH 2.4) for the poly(vinyl chloride) (PVC)-based electrodes and 0.5 mM 4-(2-hydroxyethyl)-1-piperazine-ethanesulfonic acid (HEPES; pH 6.0) for the hydrogel electrodes (see the section “Potentiometric Electrode”). The column outlet was directed perpendicularly toward the sensitive membrane of the coated wire electrode in a “wall-jet” flow cell [see FIG. 1 and Bazylak, G.; Nagels, L. J. J. Pharm. Biomed. Anal. 32 (2003) 887-903]. The distance from the LC tubing outlet to the electrode was 0.100 mm unless otherwise stated.
The membrane potential was measured against an Orion 800500 Ross reference electrode (Ag/AgCl) using a high impedance (10^13Ω) home-made amplifier. The detection signals were recorded on a data station composed of a PC equipped with a 6013 NI DA converter and LabVIEW 7 (National Instruments, Austin, Tex.) based software. The overall RC time constant of the high-impedance amplifier plus data station was set to 0.200 s.
Electrodes with a composite substrate have the important property that the membrane coating and the composite are tightly mixed at the interface, and sensors constructed in this way show very good impedance characteristics (see Nagels, L; Bohets, H.; Jimidar, M. U.S. Pat. No. 7,857,962 B2). These characteristics were verified using impedance spectroscopy. The measurements were performed with an Autolab Metrohm PGSTAT 128N FRA instrument (frequency 1-100 kHz, amplitude 10 mV). A semicircle in the Nyquist plot was obtained if the electrode had good impedance characteristics. Discussions on such characteristics of potentiometric sensors are well described in Mattinen, U.; Rabiej, S.; Lewenstam, A.; Bobacka, J. Electrochim. Acta 56 (2011) 10683-10687; and Bobacka, J.; Ivaska, A.; Lewenstam, A. Chem. Rev. 108 (2008) 329-351. […]

[4] = test system: Gelatin B; experiment: Potentiometric FIA response on gelatin B-coated electrode without aptamer (negative control sensor); type: binding; conditions: for Rmax response in mV: 10^−5M injection, coating Gelatin B
Procedure: as §4

[5] = Potentiometric sensorgram of an oligonucleotide analyte; conditions: 10^−5 M injection
From the text: Coating materials such as gelatin are easily doped by proteins [see De Wael, K.; De Belder, S.; Van Vlierberghe, S.; Van Steenberge, G.; Dubruel, P. Talanta 82 (2010) 1980-1985] antibodies, bioparticles (viruses, bacteria, . . . ), DNA, and aptamers. Large biomolecules can be used as analyte (prey ligand) (second molecular species). From experience with oligonucleotides [Nagels, L. J.; Everaert, J.; Bohets, H.; Del Favero, J.; Goossens, D.; Robbens, J.; Pietraszkiewicz, M.; Pietraszkiewicz, O., Comb. Chem. High Throughput Screening 10 (2007) 555-559] it is known that these multiply charged molecules give very good potentiometric responses. For example, the 22-mer 5′-[…]-3′ yields a slope (S, equations 2 and 3) value of 38 mV per decade, which is much higher than that calculated by the Nernst equation (equation 2). This is due to the fact that equation 2 was derived for point charges, while an oligonucleotide is a multiply charged rodlike molecule. It is detected three times more sensitively (on a molar basis) than a small, well-responding anionic molecule such as maleic acid. […] This means that the described method can also be used to measure DNA/DNA interactions. Potentiometry also allows working with miniaturized electrode arrays (eventually with ion-sensitive field-effect transistor (ISFET) readout), which means that high-throughput measurements can be considered.

[6] = test system: gelatin A coating (collagen material); experiment: Potentiometric FIA sensorgram, linearization method, gelatin A-coated sensor; type: binding, porcine
From the text: as §1, §2
as §3, with “To avoid such effects at the end of the square concentration pulse, the injector was switched from inject to load after 40 s (well before the sample loop volume was totally emptied).” left out

[7] = target: DA-specific aptamer; conditions: read-out: Kdiss determined colorimetrically; Zheng (2011); cited from earlier work

Compound	Rmax response in mV [1] [mV]	change in sensitivity (Rmax) when aptamer is coupled to gelatin B [1]	Kassoc=kon/koff [3] [M⁻¹]	koff [3] [s⁻¹]	kon [3] [M⁻¹ s⁻¹]	sensitivity of gelatin B based sensors [4]	Rmax response in mV [4] [mV]	also measured
CN(C)CCCN1c2ccccc2Sc2ccccc21 [Promazine]	2.44	no improvement in sensitivity	2.74e+06	0.0365	100000	quite insensitive	3.66	log P [2]: 4.36
5′-AAAATATCATCTTTGGTGTTTC-3′ (chemistry not given here) [22-mer oligonucleotide used as analyte]								koff ([5]; off phase): 0.032 s⁻¹; kobsd ([5]; on phase): 0.055 s⁻¹
CCN(CC)CC(=O)Nc1c(C)cccc1C [Lidocaine, lidocaine]	1.57	no improvement in sensitivity	275000	0.0717	19700	quite insensitive	2.88	average value of koff ([3]; off phase, all curves at different concentrations): 0.0748 s⁻¹
O=C(O)C(O)C(O)C(=O)O (stereo not drawn) [tartaric acid]								koff [6]: 0.0472 s⁻¹; kon ([6]; from plot of slope versus canalyte, 0.5 mM HEPES pH 6.0): 66700 M⁻¹ s⁻¹
CC(NCCc1ccc(O)cc1)C(O)c1ccc(O)cc1 (stereo not drawn) [Ritodrine, ritodrine]	1.57	no improvement in sensitivity				quite insensitive	1.83	
NCCc1ccc(O)c(O)c1 [Dopamine, dopamine]	92.86	very clear increase in Rmax					9.46	Kass [1]: 3.04e+07 M⁻¹; koff [1]: 0.0007 s⁻¹; kon [1]: 21200 M⁻¹ s⁻¹; signal (Rmax) with aptamer-containing electrodes versus electrodes without aptamer ([1]; four electrodes, each 3 injections): From five to ten times higher signals; Kd ([1]; mean of four electrodes, read-out: mean value of Kdiss): 1310 nM; Kd [7]: 700 nM
